Experimental data from the supplement of paper PMC11451515.

Tested on: P12-Ichikawa
Test: cell viability relative to DMSO control; higher = less cytotoxic
Settings: 48 h
Outline: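 NOMO1 or SEM cells were plated at 500 cells/well and P12-Ichikawa cells at 1000 cells/well in 1536-well plates (5 μl), after each leukemia line had been adapted for at least four passages in each medium. Pin dosing delivered library compounds in DMSO at 11 threefold concentrations, 47 μM to 0.79 nM. CellTiter-Glo One luminescence was read after 48 h at 37°C. Viability is reported as a per-plate percentage of DMSO wells, with cell-free wells as background.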

[1] = HPLM + 10% dialyzed FBS, 0.000781 µM
[2] = HPLM + 10% dialyzed FBS, 0.00234 µM
[3] = HPLM + 10% dialyzed FBS, 0.00702 µM
[4] = HPLM + 10% dialyzed FBS, 0.0211 µM
[5] = HPLM + 10% dialyzed FBS, 0.0632 µM
[6] = HPLM + 10% dialyzed FBS, 0.19 µM
[7] = HPLM + 10% dialyzed FBS, 0.569 µM
[8] = HPLM + 10% dialyzed FBS, 1.71 µM
[9] = HPLM + 10% dialyzed FBS, 5.12 µM
[10] = HPLM + 10% dialyzed FBS, 15.4 µM
[11] = HPLM + 10% dialyzed FBS, 46.1 µM
[12] = RPMI 5 mM glucose + 10% FBS, 0.000781 µM
[13] = RPMI 5 mM glucose + 10% FBS, 0.00234 µM
[14] = RPMI 5 mM glucose + 10% FBS, 0.00702 µM
[15] = RPMI 5 mM glucose + 10% FBS, 0.0211 µM
[16] = RPMI 5 mM glucose + 10% FBS, 0.0632 µM
[17] = RPMI 5 mM glucose + 10% FBS, 0.19 µM
[18] = RPMI 5 mM glucose + 10% FBS, 0.569 µM
[19] = RPMI 5 mM glucose + 10% FBS, 1.71 µM
[20] = RPMI 5 mM glucose + 10% FBS, 5.12 µM
[21] = RPMI 5 mM glucose + 10% FBS, 15.4 µM
[22] = RPMI 5 mM glucose + 10% FBS, 46.1 µM
[23] = RPMI 5 mM glucose + 10% dialyzed FBS, 0.000781 µM
[24] = RPMI 5 mM glucose + 10% dialyzed FBS, 0.00234 µM
[25] = RPMI 5 mM glucose + 10% dialyzed FBS, 0.00702 µM
[26] = RPMI 5 mM glucose + 10% dialyzed FBS, 0.0211 µM
[27] = RPMI 5 mM glucose + 10% dialyzed FBS, 0.0632 µM
[28] = RPMI 5 mM glucose + 10% dialyzed FBS, 0.19 µM
[29] = RPMI 5 mM glucose + 10% dialyzed FBS, 0.569 µM
[30] = RPMI 5 mM glucose + 10% dialyzed FBS, 1.71 µM
[31] = RPMI 5 mM glucose + 10% dialyzed FBS, 5.12 µM
[32] = RPMI 5 mM glucose + 10% dialyzed FBS, 15.4 µM
[33] = RPMI 5 mM glucose + 10% dialyzed FBS, 46.1 µM

SMILES | cell viability [1] | cell viability [2] | cell viability [3] | cell viability [4] | cell viability [5] | cell viability [6] | cell viability [7] | cell viability [8] | cell viability [9] | cell viability [10] | cell viability [11] | cell viability [12] | cell viability [13] | cell viability [14] | cell viability [15] | cell viability [16] | cell viability [17] | cell viability [18] | cell viability [19] | cell viability [20] | cell viability [21] | cell viability [22] | cell viability [23] | cell viability [24] | cell viability [25] | cell viability [26] | cell viability [27] | cell viability [28] | cell viability [29] | cell viability [30] | cell viability [31] | cell viability [32] | cell viability [33]
C[C@]12CC[C@H]3[C@@H](CC[C@H]4NC(=O)\C=C/[C@]34C)[C@@H]1CC[C@@H]2C(=O)NC5=CC(=CC=C5C(F)(F)F)C(F)(F)F | 109% | 112% | 112% | 111% | 115% | 111% | 102% | 104% | 91.3% | 107% | 102% | 117% | 108% | 114% | 108% | 111% | 117% | 110% | 105% | 107% | 103% | 104% | 104% | 111% | 109% | 108% | 117% | 99.2% | 99.3% | 98.4% | 96.7% | 106% | 97.5%
CN1CCN(C2=Nc3cc(Cl)ccc3Nc3ccccc32)CC1 | 102% | 105% | 108% | 108% | 91.6% | 115% | 116% | 116% | 106% | 104% | 94.4% | 91.6% | 120% | 115% | 120% | 95.8% | 125% | 107% | 115% | 124% | 108% | 108% | 100% | 103% | 103% | 102% | 96.7% | 112% | 109% | 116% | 105% | 108% | 93.2%
CN[C@@H](C)[C@H]1[C@H](O)C[C@@]2(C)[C@@H]3CC[C@H]4C(C)(C)[C@@H](NC)CC[C@@]45C[C@@]35CC[C@]12C | 92.3% | 97.3% | 84.8% | 98.4% | 96.5% | 100% | 98.8% | 102% | 103% | 97% | 96.3% | 95.4% | 89% | 81.6% | 94.4% | 103% | 98.8% | 89.3% | 105% | 81.9% | 105% | 91.9% | 85% | 91% | 83.8% | 90.1% | 93.2% | 98.8% | 89.3% | 92.6% | 81.7% | 93.8% | 79.4%
CNc1nc(Nc2ccc(C(=O)N3CCOCC3)cc2OC)ncc1Cl | – | – | – | – | – | – | – | – | – | – | – | 120% | 116% | 122% | 119% | 120% | 115% | 113% | 107% | 108% | 108% | 101% | 123% | 115% | 121% | 116% | 123% | 125% | 116% | 124% | 112% | 109% | 104%
S=C(NCc1ccc2c(c1)OCO2)N1CCN(c2ncnc3c2oc2ccccc23)CC1 | 115% | 111% | 114% | 106% | 111% | 102% | 105% | 95.6% | 69.5% | 65.2% | 33.2% | 105% | 106% | 108% | 103% | 111% | 102% | 96.2% | 74.1% | 52.7% | 54% | 29.6% | 114% | 110% | 115% | 106% | 107% | 108% | 99% | 77.8% | 60.4% | 64.6% | 35.3%
C[C@](Cc1c[nH]c2ccccc12)(NC(=O)OC1C2CC3CC(C2)CC1C3)C(=O)NC[C@H](NC(=O)CCC(=O)O)c1ccccc1 (stereo partly drawn) | 112% | 129% | 125% | 130% | 131% | 128% | 138% | 132% | 122% | 129% | 122% | – | – | – | – | – | – | – | – | – | – | – | – | – | – | – | – | – | – | – | – | – | –
O=C(c1ccc(F)cc1)N1CCC[C@H](c2nc(-c3ccc(F)cc3)no2)C1 | 119% | 121% | 120% | 124% | 117% | 121% | 116% | 113% | 107% | 113% | 106% | 115% | 122% | 122% | 128% | 144% | 120% | 128% | 116% | 111% | 114% | 115% | 120% | 128% | 123% | 119% | 117% | 126% | 116% | 105% | 118% | 110% | 111%
CNCC(O)c1ccc(O)cc1 (stereo not drawn) | 103% | 106% | 113% | 113% | 124% | 122% | 118% | 118% | 120% | 119% | 120% | 99.8% | 116% | 114% | 121% | 124% | 127% | 122% | 129% | 123% | 131% | 107% | 99.4% | 110% | 115% | 119% | 114% | 113% | 118% | 113% | 123% | 121% | 114%
Cc1nn(Cc2ccccc2Cl)c(C)c1CN(C)CC(O)COc1ccc(Cl)cc1 (stereo not drawn) | 110% | 101% | 105% | 104% | 108% | 108% | 102% | 97.4% | 104% | 95.1% | 59.6% | 93.9% | 94.5% | 93% | 108% | 97% | 101% | 94.5% | 91.5% | 92.1% | 83.7% | 42.8% | 94% | 98.3% | 95.2% | 95.7% | 98.2% | 92.6% | 94.9% | 92.1% | 89.4% | 89.1% | 39.6%
ClC1=CC=C(C=C1)C(C#N)C2=C(Cl)C=C(C=C2Cl)N3\N=C/C(=O)NC3=O (stereo not drawn) | 110% | 106% | 106% | 110% | 110% | 115% | 104% | 110% | 104% | 86.3% | 86.4% | 91% | 94.7% | 93.7% | 94.7% | 93.8% | 101% | 106% | 98.7% | 101% | 85.1% | 82.2% | 95.7% | 99.3% | 104% | 100% | 105% | 102% | 93.7% | 108% | 96.3% | 79.6% | 76%
COc1ccccc1OCC(O)COC(N)=O (stereo not drawn) | 88.2% | 107% | 103% | 109% | 109% | 107% | 111% | 117% | 111% | 112% | 58.1% | 112% | 118% | 117% | 114% | 120% | 118% | 124% | 106% | 118% | 126% | 125% | 93.1% | 105% | 101% | 107% | 110% | 103% | 110% | 101% | 113% | 117% | 106%
O=C(O)Cn1nnc(-c2cc(N3CCC(Oc4cc(F)ccc4Br)CC3)no2)n1 | 97.6% | 114% | 107% | 114% | 116% | 123% | 105% | 112% | 113% | 12% | 11% | 103% | 112% | 109% | 118% | 118% | 122% | 112% | 118% | 112% | 18% | 13.4% | 93.2% | 117% | 111% | 115% | 118% | 116% | 113% | 116% | 114% | 45.6% | 17.9%
COc1ccc([S+](=O)([O-])N(C(C)=O)c2ccccc2/C=C/c2cc[n+]([O-])cc2)cc1 | 119% | 125% | 118% | 121% | 125% | 118% | 116% | 64.9% | 24.5% | 25.1% | 10.5% | – | – | – | – | – | – | – | – | – | – | – | – | – | – | – | – | – | – | – | – | – | –
O=C1[C@H](Cc2ccc(O)cc2)N2C(=O)CCN(C(=O)NCc3ccccc3)[C@H]2CN1Cc1cccc2ccccc12 | 86.7% | 90.8% | 85.3% | 89.4% | 87.9% | 88.1% | 85.4% | 85.5% | 91.2% | 47.9% | 85.8% | 76.6% | 84.4% | 76.3% | 83% | 88.6% | 87.7% | 83% | 74% | 84.1% | 35% | 84.2% | 77.4% | 78.2% | 80.4% | 79.5% | 85% | 82.1% | 77.3% | 75.4% | 81.1% | 33.2% | 72.5%
CC1CNc2c(cccc2[S+](=O)([O-])N[C@@H](CCCNC(=N)N)C(=O)N2CC[C@@H](C)C[C@@H]2C(=O)O)C1 (stereo partly drawn) | 94.9% | 107% | 104% | 100% | 110% | 118% | 109% | 111% | 116% | 105% | 99.5% | 107% | 113% | 108% | 117% | 116% | 114% | 111% | 116% | 119% | 116% | 98.8% | 101% | 110% | 104% | 101% | 111% | 107% | 107% | 109% | 112% | 103% | 89.4%
C[C@@]12C(=O)OC(=O)[C@@]1(C)C1CCC2O1 | 106% | 103% | 106% | 112% | 111% | 108% | 109% | 92.2% | 90% | 13.2% | 12.4% | 110% | 102% | 102% | 109% | 106% | 98.9% | 103% | 102% | 92.3% | 8.07% | 6.24% | 104% | 111% | 109% | 104% | 105% | 109% | 105% | 97.5% | 93.3% | 10.6% | 7.9%
